Laboratory results published in PubChem BioAssay AID2744 (NMMLSC, 2010).
Activity calls are given as the source filed them.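 The calls were made as follows: active = fitted half-maximal concentration for changing reporter fluorescence at or below a set limit; inactive = the rest.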

Target: Citrate synthase, peroxisomal (Saccharomyces cerevisiae (strain ATCC 204508 / S288c)) (UniProt P08679)
Experiment: CIT2-GFP expression modulators in yeast, dose response, flow cytometry, MLPCN hits (AID 2744)
Details: S. cerevisiae CIT2-GFP strain, 3 h; for GFP fluorescence, higher = induction: at 33 µM (top of the series)

Sequence of Citrate synthase, peroxisomal (Saccharomyces cerevisiae (strain ATCC 204508 / S288c)) (P08679 whole entry, looked up): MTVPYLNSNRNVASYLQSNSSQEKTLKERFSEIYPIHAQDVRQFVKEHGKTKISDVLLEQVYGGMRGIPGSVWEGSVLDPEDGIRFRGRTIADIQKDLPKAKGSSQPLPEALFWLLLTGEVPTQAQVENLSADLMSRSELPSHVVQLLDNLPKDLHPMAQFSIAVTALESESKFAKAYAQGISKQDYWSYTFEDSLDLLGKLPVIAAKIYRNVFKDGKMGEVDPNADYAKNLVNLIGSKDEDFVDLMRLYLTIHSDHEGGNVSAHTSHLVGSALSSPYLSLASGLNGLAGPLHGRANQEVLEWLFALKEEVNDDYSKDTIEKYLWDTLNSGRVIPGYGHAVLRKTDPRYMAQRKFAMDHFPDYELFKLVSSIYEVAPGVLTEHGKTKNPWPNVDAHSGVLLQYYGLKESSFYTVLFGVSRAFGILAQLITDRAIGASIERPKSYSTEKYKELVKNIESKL

Row | SMILES | GFP fluorescence, higher = induction | EC50 (flow cytometry fluorescence) [µM]
1 | O=C(Nc1ccc(O)cc1)C1CCCN1S(=O)(=O)c1ccc(F)cc1 (stereo unspecified) | inactive | 
2 | COc1cc(N=c2ssnc2Cl)c(OC)cc1Cl | inactive | 
3 | O=C(OCC(=O)N1CCN(C(=O)c2ccco2)CC1)c1cc(-c2ccccc2)nc2ccccc12 | inactive | 
4 | CCCOc1ccc(C(=O)NNC(=S)NC(=O)c2ccccc2)cc1 | inactive | 
5 | C#CCOCCOCCOCCNc1nc(N2CCN(C(=O)CCCCCCCCCCNC(=O)[C@H](CCCCN)n3cc(CCO)nn3)CC2)nc(N2CCN(C(=O)CCCCCCCCCCNC(=O)[C@H](CCCN=C(N)N)n3cc(C[C@@H](C)CC)nn3)CC2)n1 | inactive | 
6 | O=C(NCc1ccc2c(c1)OCO2)c1nc(S(=O)(=O)Cc2ccccc2)ncc1Cl | inactive | 
7 | O=S(=O)(/N=C(/Sc1ccccc1)c1ccccc1)c1ccccc1 | inactive | 
8 | CC1(C(=O)NC(=S)NNC(=O)c2ccncc2)CCCCC1 | inactive | 
9 | O=C1ON=C(c2ccccc2)/C1=C/c1ccco1 | inactive | 
10 | Cc1ccc(N2C(=O)C(Cl)=C(Nc3c(C)n(C)n(-c4ccccc4)c3=O)C2=O)cc1 | inactive | 
11 | Cc1ccc(C(=O)Oc2oc(-c3ccccc3)nc2C=Nc2ccc(N(C)C)cc2)cc1 | inactive | 
12 | COCCN1C(=O)/C(=C/c2ccc(N3CCCC3)cc2C)SC1=S | inactive | 
13 | Cc1ccc(/C=C2/C(=O)ON=C2c2ccccc2)o1 | inactive | 
14 | O=[N+]([O-])c1ccc(-c2cn3nc(-c4ccccc4)c(-c4ccccc4)nc3n2)cc1 | inactive | 
15 | O=C1C=C(c2ccccc2)C(=O)N1Nc1ccccc1 | inactive | 
16 | On1ccccc1=S | inactive | 
17 | O=C(CCc1ccccc1)NNC(=S)NC(=O)c1ccccc1 | inactive | 
18 | Cc1cc(C)c(S(=O)(=O)N2CCC(C(=O)NCc3ccc(Cl)cc3Cl)CC2)c(C)c1 | inactive | 
19 | Cc1ccc(C(=O)Oc2oc(-c3ccco3)nc2C=Nc2ccc(Cl)cc2)cc1 | inactive | 
20 | C#CCOCCOCCOCCNc1nc(N2CCN(C(=O)CCCCCCCCCCNC(=O)[C@H](CCCCN)n3cc(C)nn3)CC2)nc(N2CCN(C(=O)CCCCCCCCCCNC(=O)[C@H](CCCN=C(N)N)n3cc(C[C@@H](C)CC)nn3)CC2)n1 | inactive | 
21 | O=C(Oc1c(Cl)cc(Cl)c2cccnc12)c1cccs1 | inactive | 
22 | Oc1ccc(Br)cc1/C=N/Nc1ccccn1 | inactive | 
23 | Cc1ccc(C(=O)NNC(=S)NC(=O)c2ccco2)cc1 | inactive | 

Row | SMILES | GFP fluorescence, higher = induction | EC50 (flow cytometry fluorescence) [µM]
24 | Cc1ccc(NC(=O)c2cc(N3C(=O)C=CC3=O)ccc2N2CCOCC2)cc1Cl | inactive | 
25 | CC(C)(C)c1cc(C(c2cccnc2)N2CCN(CCO)CC2)cc(C(C)(C)C)c1O (stereo unspecified) | inactive | 
26 | N/C(=N\OC(=O)c1cc(Br)ccc1Cl)c1ccccn1 |  | 4.11
27 | Cc1cc(O)c(C(=O)/C=C/c2c(F)c(F)c(F)c(F)c2F)c(=O)o1 | inactive | 
28 | O=[N+]([O-])c1ccc(S(=O)(=O)c2cccc(C(F)(F)F)c2)nc1 | inactive | 
29 | Cc1cccc(/C=C/C(=O)c2ccc([N+](=O)[O-])o2)c1 | inactive | 
30 | c1ccc(-c2csc(Nc3cccnc3)n2)nc1 | inactive | 
31 | O=c1[nH]c(-c2ccccn2)nc(C(F)(F)F)c1Br | inactive | 
32 | CC1=C/C(=N\OS(=O)(=O)c2ccccc2)C(C(C)C)=CC1=O | inactive | 
33 | CN(C)c1ccc(/C=C/c2cc[n+](C)cc2)cc1 | inactive | 
34 | Cc1ccc(/C=C2\SC(=S)N(CC3CCCO3)C2=O)o1 (stereo unspecified) | inactive | 
35 | COc1ccc(C(=O)/C=C2/C(=O)Nc3ccccc32)cc1OC | inactive | 
36 | COc1ccccc1OCCCc1c(C)n[nH]c1C | inactive | 
37 | CCn1c(=O)c(C(=O)Nc2nc3ccccc3[nH]2)c(O)c2ccccc21 | inactive | 
38 | Cc1[nH]n(-c2ncc(-c3ccccc3)s2)c(=O)c1C(c1ccc(Cl)cc1)C(C#N)C#N (stereo unspecified) | inactive | 
39 | O=S1(=O)C=C(Sc2nc3ccccc3s2)c2ccccc21 | inactive | 
40 | Cc1ccc(NC(=O)CCc2ccccc2)cc1S(=O)(=O)N1CCOCC1 | inactive | 
41 | COc1ccc([C@]2(C(C)C)ON(c3ccccc3C(F)(F)F)C2=O)cc1 | inactive | 
42 | CCCCCn1c(=O)c(C(=O)Nc2nc3ccccc3[nH]2)c(O)c2ccccc21 | inactive | 
43 | O=C1C(Cl)=C(N2CCN(Cc3ccccc3)CC2)C(=O)N1c1ccccc1 | inactive | 
44 | CCN1/C(=C/c2ccc3cc(C)ccc3[n+]2CC)Sc2ccc3sccc3c21 | inactive | 
45 | CC(=O)N(C1=C(Cl)C(=O)c2ccccc2C1=O)C1CCCCC1 | inactive | 
46 | O=[N+]([O-])c1cc(Cl)c2cccnc2c1O | inactive | 

Row | SMILES | GFP fluorescence, higher = induction | EC50 (flow cytometry fluorescence) [µM]
47 | COc1ccccc1N=Cc1nc(-c2ccccc2)oc1OC(C)=O | inactive | 
48 | COc1cc(NC(=O)c2ccccc2[N+](=O)[O-])ccc1NC(=O)c1cc2ccccc2o1 | inactive | 
49 | COC(CNC(=O)c1ccc2c3c(onc13)-c1ccccc1C2=O)OC | inactive | 
50 | CC(C)Cn1c(=O)c(C(=O)Nc2ccncc2)c(O)c2ccccc21 | inactive | 
51 | CS(=O)(=O)c1nc(-c2ccccc2)cc(C(F)(F)F)n1 | inactive | 
52 | O=C1Nc2ccccc2/C1=C\C(=O)c1ccccc1 | inactive | 
53 | CC1(c2ccccc2)ON(c2ccccc2C(F)(F)F)C1=O (stereo unspecified) | inactive | 
54 | Cc1ccc(N=Nc2ccc(O)c3ncccc23)cc1 | inactive | 
55 | CCCS(=O)(=O)c1nnnn1-c1cccc(OC)c1 | inactive | 
56 | CCOc1ccc(N2C(=O)C(Cl)=C(Nc3ccccc3O)C2=O)cc1 | inactive | 
57 | CCCCCCCCCCCCCCCC[n+]1cccc2ccccc21 | inactive | 
58 | COc1ccccc1N1C(=O)c2cccc3c(C(=O)O)ccc(c23)C1=O | inactive | 
59 | Cc1ccc2[nH]c(C)c(/C=C/c3cc[n+](C)cc3)c2c1 | inactive | 
60 | O=C1C=CC(=O)N1c1ccc(O)cc1 | inactive | 
61 | O=S(=O)(CCN(CCS(=O)(=O)C(F)(F)F)CC1CCCO1)C(F)(F)F (stereo unspecified) | inactive | 
62 | Oc1c(CN2CCN(c3ccccc3)CC2)cc(Br)c2cccnc12 | inactive | 
63 | COc1ccc([N+](=O)[O-])c(S(=O)(=O)c2ccccc2)n1 | inactive | 
64 | CCN(CC)c1ccc2cc(-c3nc4ccccc4[nH]3)c(=O)oc2c1 | inactive | 
65 | CCOC(=O)CS(=O)(=O)c1nc(-c2ccccc2)cc(C(F)(F)F)n1 | inactive | 
66 | CCc1cc(C(=O)Nc2nc(-c3ccccn3)cs2)sc1C | inactive | 
67 | Nc1ccc(Br)c2c1C(=O)c1ccccc1C2=O | inactive | 
68 | Cc1ccc(C(c2cc(Cl)c3cccnc3c2O)N2CCN(C)CC2)cc1 (stereo unspecified) | inactive | 
69 | COc1ccc(/C=C/C(=O)c2cc(Br)ccc(=O)c2O)cc1 | inactive | 

Row | SMILES | GFP fluorescence, higher = induction | EC50 (flow cytometry fluorescence) [µM]
70 | COc1ccc(OC)c(S(=O)(=O)ON2C(=O)c3ccccc3C2=O)c1 | inactive | 
71 | O=C(COc1ccc(F)cc1Cl)Nc1nc(-c2ccccn2)cs1 | inactive | 
72 | CCSc1nnc(NC(=O)c2ccccn2)s1 | inactive | 
73 | O=C(NC(=S)NNC(=O)c1cnccn1)c1ccc(Cl)cc1 | inactive | 
74 | CC[C@H](C)/C=C(C)/C=C/C1=CC2=C(Cl)C(=O)[C@@](C)(OC(C)=O)C(=O)C2=CO1 | inactive | 
75 | O=C(OCn1ncc(Br)c(Br)c1=O)c1ccccc1Cl | inactive | 
76 | CC[C@]1(c2ccccc2C)ON(c2ccccc2C(F)(F)F)C1=O | inactive | 
77 | O=C(Oc1oc(-c2ccco2)nc1C=Nc1ccccc1)c1ccco1 | inactive | 
78 | Cc1cccc2c1NC(=O)/C2=C\C(=O)c1cccs1 | inactive | 
79 | O=C(Nc1ccc(NC(=O)c2cc3ccccc3o2)cc1)c1ccco1 | inactive | 
80 | CCOC(=O)CSC1=NC(=O)/C(=C/c2ccc(Br)cc2)S1 | inactive | 
81 | CS(=O)(=O)c1nc(-c2cccs2)cc(C(F)(F)F)n1 | inactive | 
82 | Cc1cccc(N=Nc2ccc(O)c3ncccc23)c1 | inactive | 
83 | CN1CCN(C(=O)c2cc(COc3c(F)cccc3F)on2)CC1c1ccccc1 (stereo unspecified) | inactive | 
84 | COc1ccc(-c2cc(C(F)(F)F)nc(S(C)(=O)=O)n2)cc1 | inactive | 
85 | Cc1nn2c(-c3ccncc3)nnc2c2ccccc12 | inactive | 
86 | CC(Oc1cc2oc(=O)c3c(c2cc1Cl)CCC3)C(=O)NCCN1CCOCC1 (stereo unspecified) | inactive | 
87 | CCOC(=O)CS(=O)(=O)c1nc(-c2ccc(F)cc2)cc(C(F)(F)F)n1 | inactive | 
88 | Cc1ccccc1[C@]1(C)ON(c2ccccc2C(F)(F)F)C1=O | inactive | 
89 | CCOC(=O)C(C(=O)OCC)C(C(=O)OCC)N1CCOCC1 (stereo unspecified) | inactive | 
90 | CC(C)[C@@]1(c2ccc(Cl)cc2)ON(c2ccccc2C(F)(F)F)C1=O | inactive | 
91 | C#CCOCCOCCOCCNc1nc(N2CCN(C(=O)CCCCCCCCCCNC(=O)[C@H](CCCCN)n3cc(CCCC(=O)O)nn3)CC2)nc(N2CCN(C(=O)CCCCCCCCCCNC(=O)[C@H](CCCN=C(N)N)n3cc(C[C@@H](C)CC)nn3)CC2)n1 | inactive | 
